Tests used:
JARID1B = target: T1, JARID1B (Homo sapiens, UniProt Q9UGL1); assay: FLAG-JARID1B histone demethylase assay with AlphaScreen detection (HTS and dose response); type: biochemical; settings: for Assay − Artifact Signal (percent): assay signal minus artifact signal; for inhibition at 20 µM: high-throughput screen, compound 20 μM, standard demethylase conditions (10 μM α-KG, 50 μM Fe (II)), read-out: Inhibitory effect (percent); for Assay Signal (percent) / Validation result of HTS active: effect of the compound in the JARID1B AlphaScreen demethylase assay: validation of HTS actives; for Assay Signal (percent): effect of compound in JARID1B AlphaScreen assay; for Validation result of HTS active: effect of the compound in the JARID1B AlphaScreen demethylase assay: total signal before subtraction of artifact signal;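 as to Assay Signal (percent): compound tested at 20 µM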;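 as to Assay − Artifact Signal (percent): compound tested at 20 µM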;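 as to all read-outs here: FLAG-tagged JARID1B at 4 nM acting on a biotinylated H3K4me3 peptide, demethylation read by AlphaScreen luminescence, with hits checked against bio-H3K4me2 without enzyme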
T1 construct: The FLAG tagged full length JARID1B enzyme was expressed in Sf21 insect cells using FLAG-JARID1B baculoviruses; FLAG (N); made in house; host or cells: Sf21 insect cells (baculovirus)

[1] = AlphaScreen counterscreen against bio-H3K4me2 peptide in the absence of enzyme (artifact signal); settings: for Artifact Signal (percent): effect of the compound when incubated with bio-H3K4me2 peptide (counterscreen, no enzyme); for Artifact signal: effect of the compound when it is incubated with bio-H3K4me2 peptide: counterscreen, no enzyme;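 as to all read-outs here: counterscreen run without enzyme against bio-H3K4me2 peptide to remove false positive hits from the JARID1 demethylase AlphaScreen screen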

T1 sequence (Q9UGL1 whole entry): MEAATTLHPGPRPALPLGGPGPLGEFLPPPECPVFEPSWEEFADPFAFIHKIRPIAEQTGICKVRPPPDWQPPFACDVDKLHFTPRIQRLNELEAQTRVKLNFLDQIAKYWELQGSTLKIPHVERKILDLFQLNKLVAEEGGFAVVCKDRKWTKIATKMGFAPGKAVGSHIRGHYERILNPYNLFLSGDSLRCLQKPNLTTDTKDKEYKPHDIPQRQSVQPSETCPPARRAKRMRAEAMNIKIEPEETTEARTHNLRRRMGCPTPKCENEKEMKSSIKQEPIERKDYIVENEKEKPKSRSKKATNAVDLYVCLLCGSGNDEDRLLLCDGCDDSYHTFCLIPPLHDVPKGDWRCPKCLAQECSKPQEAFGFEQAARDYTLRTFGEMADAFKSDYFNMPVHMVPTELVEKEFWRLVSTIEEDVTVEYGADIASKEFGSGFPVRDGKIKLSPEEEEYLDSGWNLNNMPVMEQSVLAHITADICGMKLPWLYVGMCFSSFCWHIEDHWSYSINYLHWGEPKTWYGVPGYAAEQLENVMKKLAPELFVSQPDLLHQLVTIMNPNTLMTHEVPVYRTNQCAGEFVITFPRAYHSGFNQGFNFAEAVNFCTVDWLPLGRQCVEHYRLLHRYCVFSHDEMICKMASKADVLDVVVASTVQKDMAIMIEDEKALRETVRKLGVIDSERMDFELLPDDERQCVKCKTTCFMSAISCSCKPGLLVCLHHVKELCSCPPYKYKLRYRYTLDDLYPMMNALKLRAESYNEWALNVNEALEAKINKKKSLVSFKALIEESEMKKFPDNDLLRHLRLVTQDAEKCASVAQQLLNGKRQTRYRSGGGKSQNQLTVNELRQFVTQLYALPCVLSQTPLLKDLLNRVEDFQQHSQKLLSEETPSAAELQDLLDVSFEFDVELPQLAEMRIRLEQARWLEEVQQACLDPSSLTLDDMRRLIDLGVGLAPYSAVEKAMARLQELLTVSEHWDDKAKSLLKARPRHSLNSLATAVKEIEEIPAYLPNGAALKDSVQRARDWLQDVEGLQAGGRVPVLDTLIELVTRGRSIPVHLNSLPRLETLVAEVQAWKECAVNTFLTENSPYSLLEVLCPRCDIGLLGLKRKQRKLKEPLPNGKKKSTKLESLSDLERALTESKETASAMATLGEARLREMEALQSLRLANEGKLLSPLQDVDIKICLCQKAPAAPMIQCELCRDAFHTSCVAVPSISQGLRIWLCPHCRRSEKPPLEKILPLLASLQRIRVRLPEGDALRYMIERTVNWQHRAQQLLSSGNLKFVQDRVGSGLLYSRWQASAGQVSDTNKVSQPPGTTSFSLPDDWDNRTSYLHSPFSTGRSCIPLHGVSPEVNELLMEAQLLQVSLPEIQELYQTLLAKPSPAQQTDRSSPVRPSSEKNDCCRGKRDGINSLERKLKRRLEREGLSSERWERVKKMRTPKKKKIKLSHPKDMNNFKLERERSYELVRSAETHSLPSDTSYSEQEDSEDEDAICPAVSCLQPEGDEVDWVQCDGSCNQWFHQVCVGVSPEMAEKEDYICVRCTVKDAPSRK

| Assay − Artifact Signal (percent) (JARID1B) | inhibition at 20 µM (JARID1B) | Assay Signal (percent) (JARID1B) | Artifact Signal (percent) [1] | Validation result of HTS active: effect of the compound in the JARID1B AlphaScreen demethylase assay (JARID1B) | Artifact signal: effect of the compound when it is incubated with bio-H3K4me2 peptide [1] | Compound |
| --- | --- | --- | --- | --- | --- | --- |
| 9.49% | 44.6% | 16.16% | 6.66% |  |  | Cc1ccc(C(=O)Nc2nnc(-c3ccncc3)s2)o1 [YU148889] |
| 12.28% | 37.9% | 15.58% | 3.30% |  |  | S=C(Nc1cccc(Cl)c1Cl)Nn1cnnc1 [YU149002] |
| 49.04% | 35.7% | 47.61% | −1.43% |  |  | C=CCn1c(S)nnc1CNC(=O)c1cccc(C)c1 [YU149014] |
| 52.70% | 32% | 50.21% | −2.49% |  |  | Cn1cnnc1SCC(=O)c1ccc(C(C)(C)C)cc1 [YU149180] |
|  | 48.4% |  |  | −2.24 | −8.22 | Cc1cccc(C(=O)NNC(=S)NC(=O)CC(C)C)c1 [YU149514] |
| 11.45% | 34% | 13.59% | 2.14% |  |  | COC(=O)NC1(C(F)(F)F)C(=O)NC(C)=C1C(=O)OC (centres unmarked) [YU149831] |
|  | 48.1% |  |  | 28.52 | 27.95 | c1cc2c(cc1CNc1ccc(N3CCCC3)cc1)OCO2 [YU149834] |
| 13.21% | 47.5% | 31.65% | 18.44% |  |  | CCOc1cccc(CNc2ccc(N3CCCC3)cc2)c1 [YU149839] |
|  | 56.7% |  |  | −6.24 | −8.78 | Cc1cc(C(=O)Nc2cccc(Cn3cccn3)c2)cs1 [YU149922] |
|  | 51.1% |  |  | −12.32 | −16.01 | Cc1cccc(-n2c(=O)c(O)nc3cc([N+](=O)[O-])ccc32)c1 [YU149941] |
| 8.46% | 84.7% | 6.61% | −1.85% |  |  | CC(=O)Nc1ccccc1NC(=O)c1ccc2c(c1)OCO2 [YU149951] |
| 8.09% | 31.8% | 6.16% | −1.93% |  |  | CC(NC(=S)Nc1ccc2c(c1)OCO2)c1ccncc1 (centres unmarked) [YU150371] |
|  | 97.5% |  |  | −3.10 | −6.36 | Cc1ccc(NC(=O)C2OCCc3ccccc32)cc1Cl (centres unmarked) [YU150403] |
|  | 34.3% |  |  | 4.56 | 0.80 | CC1(C)C(=O)C2(CCCCC2)C(=O)OC1c1ccc(O)cc1 (centres unmarked) [YU150447] |
|  | 32.1% |  |  | 4.75 | −2.52 | O=c1c2c(-c3ccc(Cl)cc3)csc2nc2n1CCC2 [YU150472] |
| 48.70% | 71.2% | 52.35% | 3.65% |  |  | c1ccc(CCc2nn3c(-c4ccncc4)nnc3s2)cc1 [YU150981] |
|  | 37% |  |  | 2.93 | −4.49 | CCCc1ccc(OC(=O)c2cc3ccccc3oc2=O)cc1 [YU151027] |
| 9.86% | 96.7% | 6.13% | −3.73% |  |  | CCOC(=O)C(CCOc1cccc(CC)c1)C(=O)OCC [YU151071] |
| 8.40% | 59.7% | 6.20% | −2.19% |  |  | COc1ccc(C2CC(c3cccnc3)Nc3nnnn32)cc1 (centres unmarked) [YU151128] |
|  | 45.1% |  |  | 4.03 | −0.23 | O=C(O)CSc1nc2cc(F)c(N3CCOCC3)cc2[nH]1 [YU151409] |
| 16.81% | 30.8% | 12.98% | −3.82% |  |  | COc1cc(C(=S)N2CC(C)OC(C)C2)cc(OC)c1O (centres unmarked) [YU151441] |
| 18.39% | 36.9% | 27.61% | 9.22% |  |  | Oc1cccc(C(=S)N2CCN(Cc3ccccc3)CC2)c1 [YU151559] |

| Assay − Artifact Signal (percent) (JARID1B) | inhibition at 20 µM (JARID1B) | Assay Signal (percent) (JARID1B) | Artifact Signal (percent) [1] | Validation result of HTS active: effect of the compound in the JARID1B AlphaScreen demethylase assay (JARID1B) | Artifact signal: effect of the compound when it is incubated with bio-H3K4me2 peptide [1] | Compound |
| --- | --- | --- | --- | --- | --- | --- |
| 14.61% | 35% | 16.26% | 1.65% |  |  | O=C(Cn1c(=O)oc2ccccc21)Nc1cccc([N+](=O)[O-])c1 [YU151591] |
|  | 85.5% |  |  | −1.67 | −4.92 | COC(=O)Nc1ccc(S(=O)(=O)N2CCCCCC2)cc1 [YU151614] |
| 12.20% | 32.3% | 13.44% | 1.24% |  |  | CC(=O)Oc1c([N+](=O)[O-])cc2c(c1Br)CCCC2 [YU151714] |
|  | 84.4% |  |  | 9.33 | 5.15 | O=C(O)c1cc2cc(Cc3ccccc3Cl)ccc2oc1=O [YU151859] |
|  | 39.4% |  |  | 6.95 | 1.46 | Cc1ccc(NC(=O)CC2SC3=NCCCN3C2=O)c(C)c1 (centres unmarked) [YU152183] |
| 11.28% | 60.1% | 5.25% | −6.03% |  |  | Cc1ccc(C)c(NS(=O)(=O)c2ccc3[nH]c(=O)oc3c2)c1 [YU152226] |
| 43.69% | 51.6% | 49.40% | 5.71% |  |  | Cc1nn2c(=O)[nH]c3sc4c(c3c2nc1=O)CC(C)(C)OC4 [YU152236] |
|  | 74.6% |  |  | 2.82 | −3.09 | Nc1c([N+](=O)[O-])cc(F)c(N2CCOCC2)c1Br [YU152451] |
|  | 41.5% |  |  | −1.53 | −6.86 | O=C(NCc1ccccn1)c1ccc(NC(=O)c2ccco2)cc1 [YU152560] |
|  | 39.4% |  |  | −8.43 | −15.40 | COC(=O)C1=C(C)NC(=O)C1(Nc1nccs1)C(F)(F)F (centres unmarked) [YU152562] |
|  | 99.6% |  |  | 9.13 | 4.29 | Cc1cccc(OCC(=O)Nc2ccccc2OC(F)F)c1C [YU152564] |
|  | 45.9% |  |  | 1.32 | −4.74 | CCOc1cc(Cl)c(S(=O)(=O)n2ccnc2)cc1Cl [YU152583] |
|  | 98.2% |  |  | −1.32 | −2.67 | COc1cc(C=O)cc(Cl)c1OCc1cccc([N+](=O)[O-])c1 [YU152587] |
|  | 37.7% |  |  | −1.90 | −4.45 | CCCCOc1ccc(NC(=O)CSc2nnnn2C)cc1 [YU152624] |
|  | 99% |  |  | 6.08 | 0.22 | COc1ccccc1NC(=O)COc1ccc(CO)cc1Cl [YU152649] |
|  | 84.5% |  |  | 9.21 | 1.62 | N#Cc1c(NC(=O)c2cnn3cccnc23)sc2c1CCCC2 [YU152893] |
|  | 96.7% |  |  | 0.53 | −2.69 | CN1C(=O)c2ccc(NC(=O)c3ccc4c(c3)OCO4)cc2C1=O [YU152920] |
| 16.80% | 65.6% | 23.56% | 6.76% |  |  | C=CCN(CC=C)C(=S)Nc1sc(C)c(C)c1C(=O)OC [YU153003] |
| 9.19% | 97% | 9.27% | 0.09% |  |  | CCCSc1nc2c3c(sc2c(=O)[nH]1)CC(C)(CC)OC3 (centres unmarked) [YU153031] |
| 11.37% | 102% | 16.52% | 5.15% |  |  | O=C(NCc1ccccc1)c1ccc(N2CCCC2)c([N+](=O)[O-])c1 [YU153074] |
| 8.72% |  | 94.59% | 85.87% |  |  | O=C(O[C@@H]1Cc2c(O)cc(O)cc2O[C@@H]1c1ccc(O)c(O)c1)c1cc(O)c(O)c(O)c1 [YU153085, EPICATECHIN MONOGALLATE, reference compound] |

Reference: patent US20150272939A1, “Identification of Small Molecule Inhibitors of Jumonji AT-Rich Interactive Domain 1A (JARID1A) and 1B (JARID1B) Histone Demethylase” (Yale University, priority 2012, published 2015)
